From patent US7795305B2, “CDDO-compounds and combination therapies thereof” (Board of Regents, The University of Texas System, priority 2000, dated 2010)

Assays:
[1] = Murine model of angiogenesis, invasion promoted by ALL BM plasma; assay type: in vivo; settings: 0.5 μM, n=8
Procedure: CDDO-Me. The formation of tube-like endothelial structures that are associated with angiogenesis was analyzed using a Matrigel system (Kubota et al., 1988). Capillary-like structure formation of bone marrow endothelium was inhibited by CDDO-Me. […] Furthermore, in a murine model of angiogenesis, angiogenic invasion promoted by ALL BM plasma was abrogated by CDDO-Me at 0.5 μM (n=8). Thus, CDDO-Me also has anti-angiogenic effects.

U937 cells = assay: cells; assay type: cell-based, human
Procedure: Suspension culture of leukemic cells.
CDDO. The effect of CDDO on the survival of HL-60 and U937 leukemia cell lines is depicted in FIG. 1. A time- and dose-dependent decrease of HL-60 cells: at 48 hours, 10^−8 M, at 72 and 96 hours, 10^−9 M of CDDO reduced cell numbers by 50%. Viability of U937 cells was inhibited at 107 to 1018 at 48 hours. DNA fragmentation was measured to confirm that the cell death induced by CDDO was due to apoptosis on a sub G1 cell population by DNA/RNA flow cytometry (FIG. 2). The percentage of proliferating cells were analyzed by FCM.

GAL4-PPARγ = assay: Gal4-PPARγ chimeric protein luciferase transactivation; assay type: cell-based
Procedure: To determine if bound CDDO transactivates PPARγ, a Gal4-PPARγ chimeric protein was used to drive the expression of luciferase linked to the DNA binding sequence of GAL4 (FIG. 11B) (Wang et al., 2000). […] All known pharmacological PPARγ ligands had anti-proliferative and differentiating effects only when used at higher (3 or 5 μM)concentrations.

Row | Compound | angiogenic invasion promoted by ALL BM plasma [1] | concentration at which viability of U937 cells was inhibited (U937 cells; 48 hours) | viability at 1 µM (U937 cells; Homo sapiens, U-937, 48 h, read-out: cells remaining viable) [%] | viability at 2 µM (U937 cells; Homo sapiens, U-937, read-out: viable cells) [%] | transactivation of GAL4-PPARγ (GAL4-PPARγ)
1 | COC(=O)[C@]12CCC(C)(C)C[C@H]1[C@H]1C(=O)C=C3[C@@]4(C)C=C(C#N)C(=O)C(C)(C)[C@@H]4CC[C@@]3(C)[C@]1(C)CC2 [CDDO-Me] | abrogated |  |  |  | 
2 | CC1(C)CCC2(C(=O)O)CCC3(C)C(C(=O)C=C4C5(C)C=C(C#N)C(=O)C(C)(C)C5CCC43C)C2C1 (centres unmarked) [CDDO, 2-cyano-3,12-dioxoolen-1,9-dien-28-oic acid] |  | 107 to 1018 | 44.7 | 30.2 | transactivates GAL4-PPARγ in a dose-dependent manner
